ChEMBL document CHEMBL1201862, “PubChem BioAssay data set” (2004)
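Following 48 hours of exposure in 96-well plates, responses at five concentrations were used to interpolate endpoints linearly. The concentration for 50% growth inhibition is given as GI50.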 The source made the active and inactive calls. Cut-off read from the data, not from the text of the source: active = GI50 up to about 1.1 µM and inactive = higher.

How the values were obtained:
Assay in all cases: DTP human tumour cell line panel, 48 h
SK-OV-3 = system: SK-OV-3
OVCAR-5 = system: OVCAR-5
HL-60 = system: HL-60
HCT-15 = system: HCT-15
U-251 = system: U-251
NCI-H226 = system: NCI-H226
MOLT-4 = system: MOLT-4
Malme-3M = system: Malme-3M
EKVX = system: EKVX
SF-539 = system: SF-539
CCRF-CEM = system: CCRF-CEM
OVCAR-8 = system: OVCAR-8
HOP-18 = system: HOP-18
NCI-H522 = system: NCI-H522
SK-MEL-28 = system: SK-MEL-28
SF-268 = system: SF-268
SNB-19 = system: SNB-19
A549 = system: A549
T47D = system: T47D
NCI/ADR-RES = system: NCI/ADR-RES

Row | SMILES | GI50 (SK-OV-3) | GI50 (OVCAR-5) | GI50 (HL-60) | GI50 (HCT-15) | GI50 (U-251) | GI50 (NCI-H226) | GI50 (MOLT-4) | GI50 (Malme-3M) | GI50 (EKVX) | GI50 (SF-539) | GI50 (CCRF-CEM) | GI50 (OVCAR-8) | GI50 (HOP-18) | GI50 (NCI-H522) | GI50 (SK-MEL-28) | GI50 (SF-268) | GI50 (SNB-19) | GI50 (A549) | GI50 (T47D) | GI50 (NCI/ADR-RES)
1 | COC(=O)C1=C(c2cc(OC)c(OC)c(OC)c2)O[C@H](c2ccc3c(c2)OCO3)[C@H]1COC(C)=O | 23.1 µM (inactive) | 48.6 µM (inactive) | 15.6 µM (inactive) | 22.1 µM | 24.1 µM (inactive) | 33 µM (inactive) | 18.7 µM (inactive) | 34.4 µM (inactive) | 41.6 µM (inactive) | 26.3 µM (inactive) | 40.2 µM (inactive) | 39.3 µM (inactive) | 26.7 µM (inactive) |  |  |  |  |  |  | 
2 | O=C1C=C(Nc2ccccc2C(=O)c2ccccc2)c2ccccc2C1=O | > 100 µM (inactive) | > 100 µM (inactive) |  | 70.5 µM | 70.8 µM (inactive) | > 100 µM (inactive) |  | > 100 µM (inactive) | > 100 µM (inactive) | > 100 µM (inactive) |  | > 100 µM (inactive) | > 100 µM (inactive) | 25 µM (inactive) | > 100 µM (inactive) | > 100 µM (inactive) | > 100 µM (inactive) | > 100 µM (inactive) |  | 
3 | C/C(=N\NC(=S)N1CCCCCC1)c1nccnc1C |  | 0.169 µM (active) | 0.0508 µM (active) | < 0.01 µM | 0.2 µM (active) |  | 0.0658 µM (active) | 11.8 µM (inactive) | 0.0188 µM (active) | 0.242 µM (active) | 0.0607 µM (active) | < 0.01 µM (active) | 0.617 µM (active) |  | 0.106 µM (active) | 0.176 µM (active) |  | 0.0331 µM (active) |  | 
4 | c1ccc([P+](CCCCCCCC[P+](c2ccccc2)(c2ccccc2)c2ccccc2)(c2ccccc2)c2ccccc2)cc1 | 17.3 µM (inactive) | 11.2 µM (inactive) | 1.03 µM (active) | > 100 µM | 0.22 µM (active) | 3.61 µM (inactive) | 10.2 µM (inactive) | 16.4 µM (inactive) | > 61.5 µM (inactive) | 2.37 µM (inactive) | 9.23 µM (inactive) | 4.4 µM (inactive) |  | 1.8 µM (inactive) | 16.9 µM (inactive) | 3.5 µM (inactive) | 0.396 µM (active) | 5.73 µM (inactive) | 5.16 µM (inactive) | > 100 µM (inactive)
5 | CN(N)/N=N/c1[nH]cnc1C(N)=O | 3.33 µM (inactive) | > 89.7 µM (inactive) | 0.531 µM (active) | 22.8 µM | > 66.1 µM (inactive) | 23.4 µM (inactive) | 1.23 µM (inactive) | 4.55 µM (inactive) | 36.1 µM (inactive) | 13.7 µM (inactive) | 2.72 µM (inactive) | 3.14 µM (inactive) |  | 30.5 µM (inactive) | > 100 µM (inactive) | 5.52 µM (inactive) | > 100 µM (inactive) | > 100 µM (inactive) | > 34.5 µM (inactive) | 5.35 µM (inactive)
6 | CNC(=O)N(CCC#N)CCN(C(=O)N(C)C)c1ccccc1 | > 100 µM (inactive) | > 100 µM (inactive) | > 100 µM (inactive) | > 100 µM | > 100 µM (inactive) | > 100 µM (inactive) | > 100 µM (inactive) | > 100 µM (inactive) | > 100 µM (inactive) | > 100 µM (inactive) | > 100 µM (inactive) | > 100 µM (inactive) |  | > 100 µM (inactive) | > 100 µM (inactive) | > 100 µM (inactive) | > 100 µM (inactive) | > 100 µM (inactive) | > 100 µM (inactive) | > 100 µM (inactive)
7 | COc1ccc(C(Cc2cc(OC)c(OC)c(OC)c2)C(=O)O)cc1 (stereo not drawn) | 52.6 µM (inactive) | > 100 µM (inactive) |  | 43.5 µM | > 100 µM (inactive) | 13.6 µM (inactive) |  | 74 µM (inactive) | 63 µM (inactive) | 42.6 µM (inactive) | 46 µM (inactive) | > 100 µM (inactive) | > 100 µM (inactive) |  | 56.6 µM (inactive) | 81.8 µM (inactive) | 62.7 µM (inactive) | 60 µM (inactive) |  | 
8 | CCOC(=O)c1ccc(NC2Oc3cc4c(cc3C(c3cc(OC)c(OC)c(OC)c3)C2C)OCO4)cc1 (stereo not drawn) | 0.483 µM (active) | 3.94 µM (inactive) | 0.209 µM (active) | 0.506 µM | 0.433 µM (active) | 1.51 µM (inactive) | 0.41 µM (active) | 0.216 µM (active) | 4.24 µM (inactive) | 0.271 µM (active) | 0.371 µM (active) | 0.935 µM (active) |  | 0.416 µM (active) | 32.4 µM (inactive) | 0.675 µM (active) | 0.617 µM (active) | 0.847 µM (active) | 0.486 µM (active) | 0.369 µM (active)
